ChEMBL document CHEMBL1139734, “Exploration of the diketoacid integrase inhibitor chemotype leading to the discovery of the anilide-ketoacids chemotype” (Bioorg Med Chem Lett, 2006)

test: Inhibition of HIV integrase-mediated strand transfer activity; set-up: species or system Human immunodeficiency virus

Row | Compound | IC50
1 | CN(C(=O)/C=C(\O)C(=O)O)c1cccc(Cl)c1 | > 125000 nM
2 | O=C(/C=C(\O)C(=O)O)Nc1ccc(Cl)c(Cl)c1 | 160 nM
3 | O=C(/C=C(\O)C(=O)O)Nc1cccc(Cl)c1 | 700 nM
4 | O=C(/C=C(\O)C(=O)O)Cc1ccccc1 | > 200000 nM
5 | O=C(O)/C(O)=C/c1nc2ccc(Cl)cc2o1 | > 100000 nM
6 | O=C(/C=C(\O)C(=O)O)Nc1ccc(Cl)cc1 | 5600 nM

Results, then the molecule that gave them:

Row | IC50 | Compound
7 | 13400 nM | O=C(/C=C(\O)C(=O)O)Nc1ccc(F)cc1
8 | 2400 nM | O=C(/C=C(\O)C(=O)O)Nc1ccc(F)c(F)c1
9 | 230 nM | O=C(O)/C(O)=C/C(=O)N1CCc2cc(F)ccc21
10 | 20 nM | O=C(O)/C(O)=C/C(=O)N1CCc2cc(Cl)c(Cl)cc21
11 | 200 nM | O=C(O)/C(O)=C/C(=O)N1CCc2ccccc21
